Laboratory results: article PMC12677607, “Identification of a Pair of Linear or Cyclic Naturally Inspired Bifunctional Lipopeptide Antibiotics That Overcome Antimicrobial Resistance” (Advanced Science, 2025)
In brackets after ≈: the same amount, converted by molar mass. Square brackets hold non-standard residues; d marks the D form. Peptide text beside a SMILES is read from it. * marks the point of attachment. Myristoyl = CCCCCCCCCCCCCC(=O)*; X2 = NC[C@H](Cc1ccc(O)cc1)N*; dOrn = NCCC[C@@H](N)C(=O)O; X1 = CC(C)[C@H](O)CC(=O)*; Orn = NCCC[C@H](N)C(=O)O; βAla = NCCC(=O)O

Columns and labels:
[1] = system: Enterococcus faecalis ATCC 29212; assay: microbe, parasite or virus in culture; format: cell-based; conditions: ATCC 29212, 16 h
Description: (§1) All MIC assays were performed two independent times (n = 2) in 96‐well plates using a broth micro‐dilution method. The lowest concentration of that inhibited visible microbial growth was recorded as the MIC value.
(§2) For most of bacterial strains, overnight cultures were diluted 5000‐fold in LB broth. For E. faecium and S. aureus, overnight cultures were diluted 1000‐ and 10000‐fold in LB broth, respectively. 100 µL of diluted cells was mixed with 100 µL of LB broth containing each peptide ranging from 64 to 0.125 µg mL^−1 at 2‐fold serial dilutions.

[2] = system: Staphylococcus aureus ATCC 6538; assay: microbe, parasite or virus in culture; format: cell-based; conditions: ATCC 6538, 16 h
Description: as §1, §2

[3] = system: Acinetobacter baumannii ATCC 17978; assay: microbe, parasite or virus in culture; format: cell-based; conditions: ATCC 17978, 16 h
Description: as §1, §2

[4] = system: Staphylococcus aureus USA300; assay: microbe, parasite or virus in culture; format: cell-based; conditions: for MIC Staphylococcus aureus USA300: Table S11, LB broth, 37 °C, 16 h, n = 2
Description: as §1, §2

[5] = system: Vibrio alginolyticus XSBZ14; assay: microbe, parasite or virus in culture; format: cell-based; conditions: 16 h
Description: as §1, §2

[6] = system: Staphylococcus aureus ATCC 25923; assay: microbe, parasite or virus in culture; format: cell-based; conditions: ATCC 25923, 16 h
Description: as §1, §2

[7] = system: Klebsiella pneumoniae ATCC 13883; assay: microbe, parasite or virus in culture; format: cell-based; conditions: ATCC 13883, 16 h
Description: as §1, §2

[8] = system: Klebsiella pneumoniae NCTC 5056; assay: microbe, parasite or virus in culture; format: cell-based; conditions: NCTC 5056, 16 h
Description: as §1, §2

[9] = system: Klebsiella pneumoniae CRKP 5452; assay: microbe, parasite or virus in culture; format: cell-based; conditions: for MIC Klebsiella pneumoniae CRKP 5452: Table S11, LB broth, 37 °C, 16 h, n = 2
Description: as §1, §2

[10] = system: Acinetobacter baumannii P53; assay: microbe, parasite or virus in culture; format: cell-based; conditions: Table S11; LB broth, 37 °C, 16 h, n = 2
Description: as §1, §2

[11] = system: Streptococcus mutans ATCC 25175; assay: microbe, parasite or virus in culture; format: cell-based; conditions: ATCC 25175, 16 h
Description: as §1, §2

Enterococcus faecalis 26 = assay: microbe, parasite or virus in culture; format: cell-based; conditions: 26, 16 h
Description: as §1, §2

[12] = system: Enterococcus faecium 35682; assay: microbe, parasite or virus in culture; format: cell-based; conditions: 35682, 16 h
Description: as §1, §2

[13] = system: Streptococcus pyogenes ATCC 19615; assay: microbe, parasite or virus in culture; format: cell-based; conditions: for MIC Streptococcus pyogenes ATCC 19615: Table S11, LB broth, 37 °C, 16 h, n = 2
Description: as §1, §2

Enterococcus faecalis 28 = assay: microbe, parasite or virus in culture; format: cell-based; conditions: 28, 16 h
Description: as §1, §2

[14] = system: Staphylococcus aureus Newman; assay: microbe, parasite or virus in culture; format: cell-based; conditions: Newman, 16 h
Description: as §1, §2

[15] = system: Pseudomonas aeruginosa ATCC 9027; assay: microbe, parasite or virus in culture; format: cell-based; conditions: ATCC 9027, 16 h
Description: as §1, §2

[16] = system: Acinetobacter baumannii ATCC 19606; assay: microbe, parasite or virus in culture; format: cell-based; conditions: ATCC 19606, 16 h
Description: as §1, §2

[17] = system: Klebsiella pneumoniae CRKP HS11286; assay: microbe, parasite or virus in culture; format: cell-based; conditions: CRKP HS11286, 16 h
Description: as §1, §2

[18] = system: Salmonella typhimurium LXX; assay: microbe, parasite or virus in culture; format: cell-based; conditions: murium LXX, 16 h
Description: as §1, §2

[19] = system: Pseudomonas aeruginosa PAO1; assay: microbe, parasite or virus in culture; format: cell-based; conditions: PAO1, 16 h
Description: as §1, §2

[20] = system: Salmonella enterica ATCC 14028; assay: microbe, parasite or virus in culture; format: cell-based; conditions: ATCC 14028, 16 h
Description: as §1, §2

[21] = system: Acinetobacter baumannii 1104008; assay: microbe, parasite or virus in culture; format: cell-based; conditions: for MIC Acinetobacter baumannii 1104008: Table S11, LB broth, 37 °C, 16 h, n = 2
Description: as §1, §2

[22] = system: Candida albicans ATCC 10231; assay: MIC assay (YPD broth); format: cell-based; conditions: for MIC Candida albicans ATCC 10231: Table S11, YPD broth, 30 °C, 16 h, n = 2
Description: as §1
(§3) For fungal strains, overnight cultures were diluted 2000‐fold in YPD broth. 100 µL of diluted cells was mixed with 100 µL of YPD broth containing each peptide ranging from […] 64 to 0.125 µg mL^−1 at 2‐fold serial dilutions.

[23] = system: Candida albicans ATCC 64550; format: cell-based; conditions: ATCC 64550, 16 h
Description: as §1, §3

Shigella Castellani LXX = assay: MIC assay (broth micro-dilution); format: cell-based; conditions: Table S11; LB broth, 37 °C, 16 h, n = 2
Description: as §1, §2

B. subtilis ATCC 23857 = assay: MIC assay (broth micro-dilution); format: cell-based; conditions: Table S11; LB broth, 37 °C, 16 h, n = 2
Description: as §1, §2

Escherichia coli DH5α = assay: MIC assay (broth micro-dilution); format: cell-based; conditions: Table S11; LB broth, 37 °C, 16 h, n = 2
Description: as §1, §2

HeLa cells = assay: Cytotoxicity assay (CCK-8); format: cell-based, human; conditions: 48 h
Description: The cytotoxicity of each synAQU peptide was assessed using a cell counting kit‐8 (CCK‐8) assay. HeLa cells were first seeded in a 96‐well flat‐bottom microtiter plate with a density of ∼5000 cells per well and incubated in the DMEM medium supplemented with 10% FBS at 37 °C with 5% CO2 for 24 h. […] All cytotoxicity experiments were done in triplicate (n = 3) and repeated two independent times (n = 2).

[24] = system: four Gram-negative bacteria, four Gram-positive bacteria, and one fungal pathogen; assay: Initial antimicrobial assay of 17 synAQUs; format: cell-based; conditions: MIC up to 64 µg mL^−1, Figure 3a
Description: as §1, §2, §3

[25] = design: method as in earlier work; conditions: Figure S20; cited from earlier work
[26] = system: Gram negative and positive bacteria; design: method as in 2 sources, one per row (each row's own in cited_ref): ref 49 (a number printed in a supplementary file, which may have a reference list of its own: not looked up in the article's list) ||| ref 50 (a number printed in a supplementary file, which may have a reference list of its own: not looked up in the article's list); conditions: Figure S20, known paired peptides; cited from earlier work
[27] = design: method as in earlier work; conditions: Figure S20; cited from earlier work; remark: listed apart in the source

| Compound | MIC Enterococcus faecalis ATCC 29212 [1] [µg/mL] | MIC Staphylococcus aureus ATCC 6538 [2] [µg/mL] | MIC Acinetobacter baumannii ATCC 17978 [3] [µg/mL] | MIC Staphylococcus aureus USA300 [4] [µg/mL] | MIC Vibrio alginolyticus XSBZ14 [5] [µg/mL] | MIC Staphylococcus aureus ATCC 25923 [6] [µg/mL] | MIC Klebsiella pneumoniae ATCC 13883 [7] [µg/mL] | MIC Klebsiella pneumoniae NCTC 5056 [8] [µg/mL] | MIC Klebsiella pneumoniae CRKP 5452 [9] [µg/mL] | MIC Acinetobacter baumannii P53 [10] [µg/mL] | MIC Streptococcus mutans ATCC 25175 [11] [µg/mL] | MIC Enterococcus faecalis 26 (Enterococcus faecalis 26) [µg/mL] | MIC Enterococcus faecium 35682 [12] [µg/mL] | MIC Streptococcus pyogenes ATCC 19615 [13] [µg/mL] | MIC Enterococcus faecalis 28 (Enterococcus faecalis 28) [µg/mL] | MIC Staphylococcus aureus Newman [14] [µg/mL] | MIC Pseudomonas aeruginosa ATCC 9027 [15] [µg/mL] | MIC Acinetobacter baumannii ATCC 19606 [16] [µg/mL] | MIC Klebsiella pneumoniae CRKP HS11286 [17] [µg/mL] | MIC Salmonella typhimurium LXX [18] [µg/mL] | other results |
| --- | --- | --- | --- | --- | --- | --- | --- | --- | --- | --- | --- | --- | --- | --- | --- | --- | --- | --- | --- | --- | --- |
| CC[C@H](C)[C@H](NC(=O)[C@@H](NC(=O)[C@@H](C)NC(=O)[C@H](C)NC(=O)[C@@H](NC(=O)C[C@@H](O)C(C)C)C(C)C)[C@@H](C)CC)C(=O)NCCC(=O)N[C@@H](CC(C)C)C(=O)N[C@H](C)C(=O)N[C@H](C(=O)N[C@H](CN)Cc1ccc(O)cc1)[C@@H](C)CC [synAQU4-L] (X1-VA[dA]II[βAla]L[dA]I-X2) | > 64 | > 64 | > 64 | > 64 | > 64 | > 64 | > 64 | > 64 | > 64 | > 64 | 16 (≈ 14.3 µM) | > 64 | > 64 | 4 (≈ 3.58 µM) | > 64 | > 64 | > 64 | > 64 | > 64 | > 64 | MIC Pseudomonas aeruginosa PAO1 [19]: > 64 µg/mL; MIC Salmonella enterica ATCC 14028 [20]: > 64 µg/mL; MIC Acinetobacter baumannii 1104008 [21]: > 64 µg/mL; MIC Candida albicans ATCC 10231 [22]: > 64 µg/mL; MIC Candida albicans ATCC 64550 [23]: > 64 µg/mL; MIC Shigella Castellani LXX (Shigella Castellani LXX): > 64 µg/mL; MIC Bacllussubtilis ATCC 23857 (B. subtilis ATCC 23857): > 64 µg/mL; MIC Escherichia coli DH5α (Escherichia coli DH5α): > 64 µg/mL |
| CCCCCCCCCCCCCC(=O)N[C@@H](CCCN)C(=O)N[C@H](Cc1ccc(O)cc1)C(=O)N[C@@H](C(=O)N[C@@H](C(=O)N[C@H](CCCN)C(=O)N[C@@H](CCCN)C(=O)N[C@@H](C(=O)N[C@H](C(=O)N[C@@H](CC(C)C)C(=O)N[C@H](CCCN)C(=O)N[C@H](C(=O)N[C@@H](C)C(=O)O)[C@@H](C)O)[C@@H](C)CC)C(C)C)[C@H](C)O)C(C)C [synAQU6-L] (Myristoyl-[Orn][dY][dV][dT][dOrn][Orn][dV]IL[dOrn]TA-OH) | > 64 | 32 (≈ 20.7 µM) | 32 (≈ 20.7 µM) | > 64 | > 64 | > 64 | > 64 | > 64 | > 64 | > 64 | 4 (≈ 2.59 µM) | 4 (≈ 2.59 µM) | > 64 | 2 (≈ 1.29 µM) | > 64 | > 64 | 32 (≈ 20.7 µM) | > 64 | > 64 | > 64 | MIC Pseudomonas aeruginosa PAO1 [19]: > 64 µg/mL; MIC Salmonella enterica ATCC 14028 [20]: > 64 µg/mL; MIC Acinetobacter baumannii 1104008 [21]: > 64 µg/mL; MIC Candida albicans ATCC 10231 [22]: > 64 µg/mL; MIC Candida albicans ATCC 64550 [23]: > 64 µg/mL; MIC Shigella Castellani LXX (Shigella Castellani LXX): > 64 µg/mL; MIC Bacllussubtilis ATCC 23857 (B. subtilis ATCC 23857): 8 µg/mL (≈ 5.17 µM) |
| CCCCCCCCCCCCCC(=O)N[C@@H](CCCCN)C(=O)N[C@@H](CCCNC(=N)N)C(=O)N[C@@H](CC(C)C)C(=O)N[C@@H](C)C(=O)N[C@@H](CC(C)C)C(=O)N[C@H](C(=O)N[C@@H](CC(=O)O)C(=O)N[C@@H](CC(=O)O)C(=O)N[C@H](C(=O)N[C@@H](CC(N)=O)C(=O)N[C@H](C(=O)N[C@H](Cc1ccccc1)C(=O)N[C@@H](CC(N)=O)C(=O)O)C(C)C)C(C)C)[C@@H](C)O [synAQU7-L] (Myristoyl-KRLALTDDVNV[dF]N-OH) |  |  |  |  |  |  |  |  |  |  |  |  |  |  |  |  |  |  |  |  | MIC (μg/mL) S. aureus USA300 ([4]; USA300, 16 h): > 64 µg/mL; MIC (μg/mL) K. pneumoniae CRKP 5452 ([9]; CRKP 5452, 16 h): > 64 µg/mL; MIC (μg/mL) S. pyogenes ATCC 19615 ([13]; ATCC 19615, 16 h): > 64 µg/mL; MIC (μg/mL) A. baumannii 1104008 ([21]; 1104008, 16 h): > 64 µg/mL; MIC (μg/mL) C. albicans ATCC 10231 ([22]; ATCC 10231, 16 h): > 64 µg/mL; MIC (μg/mL) Hela (HeLa cells): > 64 µg/mL; activity against all nine tested strains [24]: not active |
| Bacaucin |  |  |  |  |  |  |  |  |  |  |  |  |  |  |  |  |  |  |  |  | hemolytic activity [25]: He mo l y t i c; antibacterial activity [26]: Broad antibacterial activity; cytotoxic activity [27]: Cyt ot oxic |
